Several values for one entry are separate records, joined by “and”; a condition that tells them apart may be missing. Equal entries are not always repeated.
Tested on: 439559-082-T-J2-PDC spheroid viability
Assay: Anticancer human tumor 439559-082-T-J2-PDC patient-derived colon adenocarcinoma cell line growth inhibition [POLQ]
Conditions: spheroids with HUVEC and MSC; for viability, T/C: stronger effect = lower value; for IC50: curve of compound
Description: Multicellular complex tumor spheroid response to Polymerase (POL) inhibitors (novobiocin, ART-558, RP6685) in combination with a variety of drugs and investigational agents in selected tumor cell lines
The POL inhibitors (novobiocin, ART-558, and RP6685) were evaluated both individually and in combination with standard of care and investigational anticancer small molecules within a complex spheroid model of solid tumors. . Complex spheroids include a stromal component modeled by human endothelial cells (HUVEC) and fibroblasts modeled by human mesenchymal stem cells (MSCs). The concentration ranges selected for each drug and investigational agent were based upon clinically achievable concentrations if the clinical Cmax of the agent was known.
Compounds. The drugs and investigational agents: novobiocin (NSC847541), ART-558 (NSC835418), RP-6685 (NSC848927), peposertib (NSC802822), ceralasertib (NSC780249), elimusertib (NSC800525), camonsertib (NSC841442), AZD-1390 (NSC803789), olaparib (NSC753686), talazoparib (NSC767125), rucaparib (NSC756644), sotorasib (NSC818433), MRTX-1133 (NSC836407), SN-38 (NSC673596), topotecan (NSC609699), epotoside (NSC141540), doxorubicin (NSC123127), gemcitabine (NSC613327), 5-fluorouracil (NSC19893), paclitaxel (NSC125973), vemurafenib (NSC761431), MSA-2 (NSC828583), SN-011 (NSC837082), adavosertib (NSC754352), prexasertib (NSC758257), carboplatin (NSC241240) and oxaliplatin (NSC266046), were obtained from the National Cancer Institute (NCI) Developmental Therapeutics Program Chemical Repository (21). The FDA-approved anticancer drug set is available from the Developmental Therapeutics Program at https://dtp.cancer.gov/organization/dscb/obtaining/. […] The stock solutions were prepared in dimethyl sulfoxide (DMSO, Sigma-Aldrich, St. Louis, MO, cat. D2650), except for the platinum compounds which were prepared in saline (Quality Biological, Gaithersburg, MD, cat. 114-055-101), at 800-fold the tested concentration and stored at -70 degrees C prior to their use. All drugs and investigational agents were tested over a range starting from a high concentration at or near the clinical Cmax and decreasing in half-log increments. If the clinical Cmax for an agent had not been determined, the highest concentration tested was 10 microM, except for SN-38, which was tested at a high concentration of 1 microM.
Cell Culture. All cells were maintained in an incubator at 37 degrees C and 5% CO2 with 95% humidity. The PDC lines were cultured according to standard operating procedures established by the NCI PDMR (https://pdmr.cancer.gov). Table 3 of the manuscript, lists the cell lines along with the number of the three cell types plated to form the mct-spheroids and media for tumor cell growth. After thawing, all PDC lines, except 997537-175-T-J1-PDC and 415267-285-R-J2-PDC, were cultured in Matrigel-coated flasks prepared with a working solution of 1X Ham's F-12 nutrient mix, without supplementation (Thermo Fisher Scientific, cat. 11765054), 100 U/mL penicillin-streptomycin (Thermo Fisher Scientific, cat. 15140122), and 2.5% Matrigel (Corning Inc., Corning, NY, cat. 354248) for the first three passages. The two PDC lines 997537-175-T-J1-PDC and 415267-285-R-J2-PDC were cultured on uncoated flasks. The 857933-349-R-J2-PDC line was cultured in 6C/Colon 1B media containing advanced DMEM/F-12 (Thermo Fisher Scientific, cat. 12634028), 10 mM HEPES (Thermo Fisher Scientific, cat. 15630080), 1X GlutaMAX supplement (Thermo Fisher Scientific, cat. 35050061), 0.1 mg/mL primocin (InvivoGen, San Diego, CA, cat. ant-pm-2), 10% defined fetal bovine serum, heat inactivated (HyClone Laboratories Inc., Logan, UT, cat. SH30070.03HI), 50% L-WRN conditioned media (ATCC, cat. CRL-3276), 1.25 mM N-Acetyl-L-cysteine (Sigma-Aldrich, cat. A9165), 10 mM nicotinamide (Sigma-Aldrich, cat. N0636), 1X B-27 supplement (Thermo Fisher Scientific, cat. 17504044), 1X N-2 supplement (Thermo Fisher Scientific, cat. […]
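Further: spheroids exposed to compounds for seven days before readout.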
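Wherever viability, T/C is given: 100% = DMSO vehicle control viability.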

SMILES	viability, T/C (compound 0.0316 µM)	viability, T/C (compound 0.1 µM)	viability, T/C (compound 0.316 µM)	viability, T/C (compound 1 µM)	viability, T/C (compound 3.16 µM)	viability, T/C (compound 10 µM)	IC50	viability, T/C (compound 0.00316 µM)	viability, T/C (compound 0.01 µM)	viability, T/C (compound 0.0949 µM)	viability, T/C (compound 0.3 µM)	viability, T/C (compound 0.949 µM)	viability, T/C (compound 3 µM)	viability, T/C (compound 0.000316 µM)	viability, T/C (compound 0.001 µM)
C#Cc1c(F)ccc2cc(O)cc(-c3ncc4c(N5CC6CCC(C5)N6)nc(OCC56CCCN5CC(F)C6)nc4c3F)c12 (stereo unspecified)	98.3% and 86.1% and 91.5%	87.7% and 85.2% and 81.3%	72.3% and 64.9% and 72.9%	66.5% and 68.4% and 70.6%	59.8% and 69.2% and 61.3%	53% and 67.8% and 51%	> 10 µM	–	–	–	–	–	–	–	–
C=CC(=O)N1CCN(c2nc(=O)n(-c3c(C)ccnc3C(C)C)c3nc(-c4c(O)cccc4F)c(F)cc23)C(C)C1 (stereo unspecified)	93% and 88.6% and 99.7%	91.5% and 84.4% and 100%	95.6% and 90.7% and 99.1%	96.8% and 92.5% and 105%	97.7% and 80.5% and 99.9%	98.6% and 103% and 108%	> 10 µM	–	–	–	–	–	–	–	–
C=CCn1c(=O)c2cnc(Nc3ccc(N4CCN(C)CC4)cc3)nc2n1-c1cccc(C(C)(C)O)n1	98.5% and 99.2% and 89.3%	97.7% and 104% and 90.1%	99.3% and 97.5% and 91.7%	81.2% (2×) and 83.4%	–	–	> 1 µM	97.3% and 99% and 101%	93.6% and 96.3% and 96.2%	–	–	–	–	–	–
CC(=O)O[C@H]1C(=O)[C@@]2(C)[C@H]([C@H](OC(=O)c3ccccc3)[C@]3(O)C[C@H](OC(=O)[C@H](O)[C@@H](NC(=O)c4ccccc4)c4ccccc4)C(C)=C1C3(C)C)[C@]1(OC(C)=O)CO[C@@H]1C[C@@H]2O	–	–	–	–	–	–	2.24 µM and 1.18 µM and 1.44 µM	–	–	83% and 81.7% and 82.3%	77.9% and 70.6% and 74.8%	68.7% and 51.8% and 55.5%	43.4% and 22.5% and 40.4%	–	–
CC(C)n1c(=O)n(C)c2cnc3cc(F)c(-c4ccc(OCCCN5CCCCC5)nc4)cc3c21	–	–	–	–	116% and 127% and 102%	–	> 10 µM	–	–	–	–	–	–	–	–
CC1COCCN1c1cc(-c2ccnn2C)c2ccnc(-c3ccn[nH]3)c2n1 (stereo unspecified)	97.4% and 94.7% and 96.7%	69.8% and 71.2% and 83.1%	51.1% and 45.3% and 54.1%	46.9% and 43.4% and 49.2%	–	43.8% and 39.4% and 49.2%	–	–	–	–	–	–	–	–	–
CC1COCCN1c1cc(C2(O)CC3CCC(C2)O3)c2cnn(-c3ccn[nH]3)c2n1 (stereo unspecified)	92.2% and 97.5% and 97.8%	82.7% and 81.3% and 85.3%	70.9% and 70.1% and 75.3%	61.7% and 59.7% and 72.1%	47.5% and 49% and 59.7%	46.5% and 47% and 53.5%	3.48 µM and 4.1 µM and > 10 µM	–	–	–	–	–	–	–	–
CC1COCCN1c1cc(C2(S(C)(=N)=O)CC2)nc(-c2ccnc3[nH]ccc23)n1 (stereo unspecified)	100% and 99.8% and 96.6%	98.7% and 94.7% and 99.4%	95.2% and 91.3% and 98.8%	96% and 88% and 91.1%	94.9% and 97.8% and 85.5%	67.7% and 75.1% and 68.6%	> 10 µM	–	–	–	–	–	–	–	–
CCCS(=O)(=O)Nc1ccc(F)c(C(=O)c2c[nH]c3ncc(-c4ccc(Cl)cc4)cc23)c1F	97.4% and 77.9% and 99.4%	–	102% and 105% and 90%	103% and 87.8% and 100%	–	–	> 10 µM and 7.74 µM	–	–	–	–	–	–	–	–
CC[C@@]1(O)C(=O)OCc2c1cc1n(c2=O)Cc2cc3c(CN(C)C)c(O)ccc3nc2-1	95.1% and 96.1% and 93.2%	88.2% and 77.2% and 75.9%	–	–	–	–	> 0.1 µM	100% and 111% and 96.2%	92.8% and 100% and 106%	–	–	–	–	102% and 87.1% and 100%	101% and 94.2% and 99%
CCc1c2c(nc3ccc(O)cc13)-c1cc3c(c(=O)n1C2)COC(=O)[C@]3(O)CC	71.9% and 75.1% and 71.4%	72.1% and 79.6% and 64.2%	63.3% and 81% and 57.8%	40.5% and 58.2% and 35.7%	–	–	0.627 µM and > 1 µM and 0.375 µM	95.8% and 83.5% and 94.6%	85% and 74.5% and 81%	–	–	–	–	–	–
CCc1cc2c(N3CCc4c(cc(Cn5ccnc5)cc4-c4cn(C)nc4C(F)(F)F)C3=O)cc(C)nc2c(OC)n1	105% and 93.7% and 95.3%	94.8% and 96.5% and 90.4%	94.4% and 95.2% and 87.4%	103% and 91.7% and 94.3%	99.1% and 101% and 92.2%	94.1% and 90.4% and 87.9%	> 10 µM	–	–	–	–	–	–	–	–
CCc1cc2c(N3CCc4c(cc(Cn5ccnc5)cc4-c4cn(C)nc4C(F)(F)F)C3=O)ccnc2c(OC)n1	96.6% and 87.7% and 94.8%	100% and 94.5% and 93.2%	102% and 101% and 87.4%	101% and 95% and 96%	107% and 95% and 90.8%	94.8% and 89.2% and 94.2%	> 10 µM	–	–	–	–	–	–	–	–
CNCc1ccc(-c2[nH]c3cc(F)cc4c3c2CCNC4=O)cc1	95.3% and 101% and 103%	100% and 103% and 95.7%	102% and 96.3% and 92.9%	98.9% and 111% and 95.9%	108% and 124% and 107%	94.3% and 101% and 108%	> 10 µM	–	–	–	–	–	–	–	–
